Biological target: Gastrin/cholecystokinin type B receptor (Cavia porcellus)
Assay: In vitro binding affinity against Cholecystokinin type B receptor in guinea pig brain membranes

In the case of `CCCC[C@H](NC(=O)[C@H](Cc1ccc(OS(=O)(=O)O)cc1)NC(=O)OC(C)(C)C)C(=O)NCC(=O)N[C@H](Cc1c[nH]c2ccccc12)C(=O)N[C@@H](CCCC)C(=O)N[C@@H](CC(=O)O)C(=O)NCCc1ccccc1` [(S)-3-{(S)-2-[(R)-2-(2-{(S)-2-[(S)-2-tert-Butoxycarbonylamino-3-(4-sulfooxy-phenyl)-propionylamino]-hexanoylamino}-acetylamino)-3-(1H-indol-3-yl)-propionylamino]-hexanoylamino}-N-phenethyl-succinamic acid], the IC50 is reported as 1 µM.
